Consider five molecules from PMC7012964, “Biopharmaceutical Understanding of Excipient Variability on Drug Apparent Solubility Based on Drug Physicochemical Properties. Case Study: Superdisintegrants” (The AAPS Journal, 2020).

Values after ≈ are worked out from the molar mass of the structure shown. Read-outs that look alike come from different tables or passages of the source.

For data set [1] the following is noted: ref (20), (22), (23), (25), DrugBank, (28), (31), (33); cited from earlier work.
Data set [2] is described as follows: Shake-flask drug solubility in absence of excipient (reference solubility). It counts as physicochemical. The protocol:
(§1) Compendial media (0.1 N HCl pH 1, phosphate buffer pH 6.8) were prepared according to the method described in European Pharmacopoeia ([35]). Fasted State Simulated Gastric Fluid (FaSSGF) and Fasted State Simulated Intestinal Fluid (FaSSIF-V2) were prepared as described by Jantratid et al.([36]).
(§2) Drug solubility studies in the absence and presence of excipient were performed in triplicate using the shake-flask method ([38]). Drug excess amount and 2% w/w or 5% w/w of each excipient were weighed and placed in centrifuge tubes. […] The physical mixtures were vortexed for 3 min. Then 5 mL of each medium was added in the tubes and the samples were placed in a shaking water bath (37°C, 200 strokes per minute (spm)). […] Filter adsorption studies were prior performed in triplicate for each drug. […] Filtered samples were further diluted (if needed) with the corresponding medium and analysed by HPLC (Supplementary Table I). Analytical HPLC procedures for drug quantification in the samples were modifications of already published methods. Drug quantification was made based on calibration curves. Standards were formulated from concentrated stock solution consisting of drug dissolved in MeOH. […] Drug solubility was calculated based on the sample drug concentration measured.

Data set [3] in a line: Relative effect (RE) of superdisintegrant on drug apparent solubility (shake-flask, physical mixtures). It counts as physicochemical. The protocol: as §1, §2
On the set-up of data set [4]: method as in earlier work. To be noted: ref (20), (22), (24), (25), (27), (30), (31), (34); cited from earlier work.
[5] abbreviates: aqueous buffer, thermodynamic from solid, Phosphate buffer pH 6.8 (compendial), 37°C, mean ± SD, read-out: Reference solubility.
[6] abbreviates: fassgf or other biorelevant, thermodynamic from solid, FaSSGF (biorelevant), 37°C, mean ± SD, read-out: Reference solubility.
Where [7] appears, read: simulated gastric fluid, thermodynamic from solid, 0.1 N HCl pH 1 (compendial), 37°C, mean ± SD, read-out: Reference solubility.
The mark [8] stands for this setting: thermodynamic from solid, FaSSIF-V2 (biorelevant), 37°C, mean ± SD, read-out: Reference solubility.

For the molecule `CC(C)Cc1ccc(C(C)C(=O)O)cc1` (centres unmarked) [IBU, Ibuprofen], the “Ionization (type)” value in data set [1] is given as “Weak acid”. Besides, the solubility (commonly the dissolved amount per volume that the medium holds) at 24 h in data set [2] (setting [5]) was 5500 µg/mL (≈ 26700 µM); in data set [2] (setting [6]), 44 µg/mL (≈ 213 µM); in data set [2] (setting [7]), 43 µg/mL (≈ 208 µM); in data set [2] (setting [8]), 1500 µg/mL (≈ 7270 µM).
As for `CC(=O)Nc1ccc(O)cc1` [PRC, Paracetamol], the “Ionization (type)” value in data set [1] was “Neutral”. In addition, the solubility at 24 h in data set [2] (setting [5]) is 15000 µg/mL (≈ 99200 µM); in data set [2] (setting [6]), 17000 µg/mL (≈ 112000 µM); in data set [2] (setting [7]), 16000 µg/mL (≈ 106000 µM); in data set [2] (setting [8]), 17000 µg/mL (≈ 112000 µM).
With `NC(=O)N1c2ccccc2C=Cc2ccccc21` [CBZ, Carbamazepine], the “Ionization (type)” value in data set [1] was “Neutral”. Also, in data set [3] (CCS(L), high level, phosphate buffer pH 6.8, 24 h), the “Relative effect (RE) of excipient on drug solubility” value (“Relative effect (RE) of excipient” for short) worked out at 37%. Also, in data set [4], the “Solubility (based on BCS classification)” value is reported as “Low (27)”. For the same molecule, the solubility at 24 h in data set [2] (setting [5]) is 227 µg/mL (≈ 961 µM); in data set [2] (compendial media (0.1 N HCl pH 1; phosphate buffer pH 6.8), compendial media, read-out: Solubility of pure drug) it was 250 µg/mL (≈ 1060 µM); in data set [2] (setting [6]), 368 µg/mL (≈ 1560 µM); in data set [2] (setting [7]), 265 µg/mL (≈ 1120 µM); in data set [2] (setting [8]) it was 280 µg/mL (≈ 1190 µM). Also, the solubility at 0.5 h in data set [2] (compendial media (0.1 N HCl pH 1; phosphate buffer pH 6.8), 37 °C, thermodynamic from solid, compendial media, 0.5 h, read-out: Solubility of pure drug) is 350 µg/mL (≈ 1480 µM).
Regarding `CCC(C)n1ncn(-c2ccc(N3CCN(c4ccc(OCC5COC(Cn6cncn6)(c6ccc(Cl)cc6Cl)O5)cc4)CC3)cc2)c1=O` (centres unmarked) [ITZ, Itraconazole], the “Ionization (type)” value in data set [1] is recorded as “Weak base”. In addition, the “Relative effect (RE) of excipient” value in data set [3] (5% CCS(H), FaSSIF-V2, 24 h) is listed as 31%; in data set [3] (CCS(H), low level, FaSSIF-V2, 24 h) it was −40%; in data set [3] (Explotab CLV (SSG), high excipient level, FaSSIF-V2, 24 h), 25%; in data set [3] (Glycolys (SSG), both excipient levels, FaSSIF-V2, 24 h), “approximately 50%”; in data set [3] (Glycolys (SSG), high excipient level, 0.1 N HCl pH 1, 24 h), −25%; in data set [3] (Glycolys (SSG), low excipient level, 0.1 N HCl pH 1, 24 h), −23%. The “Relative effect (RE) of excipient” value in data set [3] (Glycolys LV (SSG), high excipient level, FaSSIF-V2, 24 h) turned out to be 42%. Further, the “Solubility (based on BCS classification)” value in data set [4] was “Low (34)”. Also, the solubility at 24 h in data set [2] (setting [5]) was < 0.015 µg/mL; in data set [2] (setting [6]), 1.2 µg/mL (≈ 1.7 µM); in data set [2] (setting [7]), 11 µg/mL (≈ 15.6 µM); in data set [2] (setting [8]), 0.05 µg/mL (≈ 0.0709 µM).
Take `OCCN(CCO)c1nc(N2CCCCC2)c2nc(N(CCO)CCO)nc(N3CCCCC3)c2n1` [DPL, Dipyridamole]: the “Ionization (type)” value in data set [1] is given as “Weak base”. In addition, the “Solubility (based on BCS classification)” value in data set [4] is on record as “Low (30)”. In addition, the solubility at 24 h in data set [2] (setting [5]) was 5 µg/mL (≈ 9.91 µM); in data set [2] (setting [6]), 8600 µg/mL (≈ 17000 µM); in data set [2] (setting [7]), 13000 µg/mL (≈ 25800 µM); in data set [2] (setting [8]), 13 µg/mL (≈ 25.8 µM).
